This note sets out measurements from patent publication US5034391A, “Piperazinylalkyl-3(2H)-pyridazinones and the use thereof as agents lowering blood pressure” (CL Pharma Aktiengesellschaft, priority 1988, dated 1991).

As a reminder, the Ki is the dissociation constant of the complex between target and ligand, obtained from inhibition or displacement.

For one assay, the target named is T1, 5-HT-1A receptors (Rattus norvegicus, UniProt P19327).
T1 construct: 5-HT-1A receptors in rat brain membranes; from tissue; host or cells: rat brain membranes
T1 sequence (P19327 1-422): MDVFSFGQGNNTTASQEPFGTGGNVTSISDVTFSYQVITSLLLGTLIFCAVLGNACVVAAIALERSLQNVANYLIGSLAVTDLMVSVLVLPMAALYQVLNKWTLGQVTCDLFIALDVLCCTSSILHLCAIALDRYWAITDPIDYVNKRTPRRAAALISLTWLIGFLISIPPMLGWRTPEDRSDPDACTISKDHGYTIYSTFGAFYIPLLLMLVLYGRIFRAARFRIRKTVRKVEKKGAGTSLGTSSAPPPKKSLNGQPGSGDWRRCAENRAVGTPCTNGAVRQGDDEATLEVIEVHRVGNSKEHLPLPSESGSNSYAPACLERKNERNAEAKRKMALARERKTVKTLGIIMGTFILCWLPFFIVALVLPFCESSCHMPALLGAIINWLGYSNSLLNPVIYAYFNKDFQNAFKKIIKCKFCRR
Nature of the assay: Affinity for 5-HT-1A receptors: displacement of tritiated 8-OH-DPAT on rat brain membranes. The following applies: Ki from IC50 by Cheng and Prusoff, read-out: Inhibition constants at 5-HT1A-receptor (Ki). Type of assay: binding. The method, then: The affinity of compounds of the general formula I for 5-HT-1A receptors was determined by the method described by H. Gozlan, S. Elmestikawy, L. Pichat, J. Glowinski and M. Hamon in Nature 305, 140-142 (1983). In this method the competitive displacement of tritiated 8-OH-DPAT (8-hydroxy-(di-n-propylamino)tetralin) on rat brain membranes by the test substances is measured, and the IC50 (50% inhibition concentration) is determined as that concentration which brings about a 50% inhibition of the specific binding of tritiated 8-OH-DPAT to 5-HT-1A receptors in rat brain membranes.
The concentration-independent inhibitor constants K1 -alpha1 and K1 -5HT-1A were determined from the IC50 values as stated by Y. Cheng and H. W. Prusoff in Biochem. Pharmacol. 22, 3099-3108 (1973).

In the next assay the target is T2, alpha1 adrenoceptors (Rattus norvegicus, UniProt P15823).
T2 construct: from tissue; host or cells: rat cardiac membranes
T2 sequence (P15823 1-515): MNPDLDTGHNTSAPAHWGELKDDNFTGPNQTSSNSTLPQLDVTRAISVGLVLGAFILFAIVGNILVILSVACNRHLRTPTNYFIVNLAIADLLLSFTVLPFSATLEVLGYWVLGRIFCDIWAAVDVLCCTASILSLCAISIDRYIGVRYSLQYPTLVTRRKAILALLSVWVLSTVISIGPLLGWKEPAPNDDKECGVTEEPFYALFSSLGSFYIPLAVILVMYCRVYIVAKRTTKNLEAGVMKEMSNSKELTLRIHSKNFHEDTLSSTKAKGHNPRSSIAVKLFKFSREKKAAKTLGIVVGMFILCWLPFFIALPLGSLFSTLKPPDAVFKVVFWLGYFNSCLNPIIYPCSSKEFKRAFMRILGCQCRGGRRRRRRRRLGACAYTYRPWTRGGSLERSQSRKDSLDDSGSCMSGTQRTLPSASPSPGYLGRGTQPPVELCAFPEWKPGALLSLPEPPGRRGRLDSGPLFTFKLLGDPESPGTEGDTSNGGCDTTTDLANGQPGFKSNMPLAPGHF
The assay can be described thus: Affinity for alpha1 adrenoceptors: displacement of tritiated prazosin on rat cardiac membranes. Type of assay: binding. The following applies: Ki from IC50 by Cheng and Prusoff, read-out: Inhibition constants at alpha-1-adrenoceptor (Ki). The method, then: The affinity of compounds of the general formula I for alpha1 adrenoceptors was established using the method described by R. S. Williams, D. F. Dukes and […] in J. Cardiovasc. Pharmacol. 3, 522-531 (1981). In this method the competitive displacement of tritiated prazosin (2-(4-(2-furoyl)-1-piperazinyl)-4-amino-6,7-dimethoxy-quinazoline) on rat-cardiac membranes by the test substances is measured, and the IC50 (50% inhibition concentration) is determined as that concentration which brings about a 50% inhibition of the specific binding of tritiated prazosin to the alpha1 adrenoceptors in rat cardiac membranes.
The concentration-independent inhibitor constants K1 -alpha1 were determined from the IC50 values as stated by Y. Cheng and H. W.Prusoff in Biochem. Pharmacol. 22, 3099-3108 (1973).

For the compound `COc1ccccc1N1CCN(CCNc2cnn(CCN(C)C)c(=O)c2Cl)CC1` [2-(Dimethylaminoethyl)-4-chloro-5-((2-(4-(2-methoxyphenyl)piperazinyl-1)ethyl)amino)-3(2H)-pyridazinone], the Ki at 5-HT-1A receptors stood at 118 nM; on alpha1 adrenoceptors, 17.3 nM.

For the compound `COc1ccccc1N1CCN(CCNc2cnn(CCO)c(=O)c2Cl)CC1` [2-Hydroxyethl-4-chloro-5-((2-(4-(2-methoxyphenyl)piperazinyl-1-)ethyl)amino-3(2H)-pyridazinone], the Ki on 5-HT-1A receptors is 86.3 nM; on alpha1 adrenoceptors, 10.8 nM. For `COc1ccccc1N1CCN(CCNc2ccnn(CCO)c2=O)CC1` [2-Hydroxyethyl-4-((2-(4-(2-methoxyphenyl)piperazinyl-1)ethyl)amino)-3(2H)-pyridazinone], the values for the Ki on 5-HT-1A receptors and on alpha1 adrenoceptors were 18.2 nM and 17.7 nM, respectively. For the compound `COc1ccccc1N1CCN(CCNc2cnn(CCO)c(=O)c2)CC1` [2-Hydroxyethyl-5-((2-(4-(2-methoxyphenyl)piperazinyl-1)ethyl)amino)-3(2H)-pyridazinone], the Ki was found to be 55.8 nM at 5-HT-1A receptors and 128 nM on alpha1 adrenoceptors. On the same counts, the results for `COc1ccccc1N1CCN(CCNc2c(Cl)cnn(CCO)c2=O)CC1` [2-Hydroxyethyl-5-chloro-4-((2-(4-(2-methoxyphenyl)piperazinyl-1)ethyl)amino)-3(2H)-pyridazinone] are 25.6 nM and 2.42 nM. For the compound `Cn1nccc(NCCN2CCN(c3ccccc3O)CC2)c1=O` [2-Methyl-4-((2-(4-(2-hydroxyphenyl)piperazinyl-1)ethyl)amino)-3(2H)-pyridazinone], the Ki on 5-HT-1A receptors came to 36.5 nM; at alpha1 adrenoceptors, 65.5 nM.

With `COc1cc(C)ccc1N1CCN(CCNc2ccnn(C)c2=O)CC1` [2-Methyl-4-((2-(4-(2-methoxy-4-methylphenyl)piperazinyl-1)ethyl)amino)-3(2H)-pyridazinone], the Ki at 5-HT-1A receptors is 272 nM; on alpha1 adrenoceptors, 171 nM.

As to `COc1ccc(C)cc1N1CCN(CCNc2ccnn(C)c2=O)CC1` [2-Methyl-4-((2-(4-(2-methoxy-5-methylphenyl)piperazinyl-1)ethyl)amino)-3(2H)-pyridazinone], the Ki on 5-HT-1A receptors is 186 nM; at alpha1 adrenoceptors, 73.6 nM. On the same counts, the results for `Cn1nccc(NCCN2CCN(c3cccc(C(F)(F)F)c3)CC2)c1=O` [2-Methyl-4-((2-(4-(3-trifluoromethylphenyl)piperazinyl-1)ethyl)amino-3(2H)-pyridazinone] are 4.56 nM and 175 nM. Regarding `Cn1ncc(Cl)c(NCCCN2CCN(c3ccccc3F)CC2)c1=O` [2-Methyl-5-chloro-4-((3-(4-(2-fluorophenyl)piperazinyl-1)propyl)amino)-3(2H)-pyridazinone], on alpha1 adrenoceptors, the inhibition constant (Ki) came to 4.89 nM. In the case of `Cc1ccc(N2CCN(CCCNc3c(Cl)cnn(C)c3=O)CC2)c(O)c1` [2-Methyl-5-chloro-4-((3-(4-(2-hydroxy-4-methylphenyl)piperazinyl-1)propyl)amino)-3(2H)-pyridazinone], at alpha1 adrenoceptors, the inhibition constant Ki came to 5.34 nM.

In the case of `Cc1ccccc1N1CCN(CCCNc2c(Cl)cnn(C)c2=O)CC1` [2-Methyl-5-chloro-4-((3-(4-(2-methylphenyl)piperazinyl-1)piperazinyl-1)propyl)amino)-3(2H)-pyridazinone], the Ki at alpha1 adrenoceptors was found to be 4.45 nM.

With `COc1ccccc1N1CCN(CCCN(C)c2c(Cl)cnn(C)c2=O)CC1` [2-Methyl-5-chloro-4-(methyl-(3-(4-(2-methoxyphenyl)piperazinyl-1)propyl)amino)-3(2H)-pyridazinone], at alpha1 adrenoceptors, the Ki came out at 12.9 nM. The same measure, in the same setting: as for `CCOc1ccccc1N1CCN(CCCNc2cc(Cl)nn(C)c2=O)CC1` [2-Methyl-6-chloro-(3-(4-(4-(2-ethoxyphenyl)piperazinyl-1)propyl)amino)-3(2H)-pyridazinone], the figure is 6.5 nM; as for `COc1ccccc1N1CCN(CCNc2cnn(-c3ccccc3)c(=O)c2)CC1` [2-Phenyl-5-((2-(4-(2-methoxyphenyl)piperazinyl-1)ethyl)amino)-3(2H)-pyridazinone], 61.6 nM; as for `COc1ccccc1N1CCN(CCCCNc2c(Cl)cnn(C)c2=O)CC1` [2-methyl-5-chloro-4-((4-(4-(2-methoxyphenyl)-1-piperazinyl)butyl)amino)-3(2H)-pyridazinone], 2.15 nM. With `COc1ccccc1N1CCN(CCNc2ccnn(C(C)(C)C)c2=O)CC1` [2-t-Butyl-4-((2-(4-(2-methoxyphenyl)piperazinyl-1)ethyl)amino)-3(2H)-pyridazinone], the Ki on alpha1 adrenoceptors stood at 60.8 nM.

For the compound `O=c1[nH]nccc1NCCN1CCN(c2ccccc2O)CC1` [4((2-(4-(2-Hydroxyphenyl)piperazinyl-1)ethyl)amino)-3(2H)-pyridazinone], the Ki on alpha1 adrenoceptors was found to be 84 nM.

As to `COc1ccccc1N1CCN(CCNc2ccn[nH]c2=O)CC1` [4-((2-(4-(2-Methoxyphenyl)piperazinyl-1)ethyl)amino)-3(2H)-pyridazinone], the Ki on alpha1 adrenoceptors was 42.2 nM. Still for that read-out and setting: as for `CCOc1ccccc1N1CCN(CCCNc2ccn[nH]c2=O)CC1` [4-((3-(4-(2-Ethoxyphenyl)piperazinyl-1)propyl)amino)-3(2H)pyridazinone], the figure is 13 nM. Still for that read-out and setting: to `COc1ccccc1N1CCN(CCCNc2ccn[nH]c2=O)CC1` [4-((3-(4-(2-Methoxyphenyl)piperazinyl-1)propyl)amino) -3(2H)-pyridazinone] belongs 26.1 nM; to `COc1ccccc1N1CCN(CCCCNc2ccn[nH]c2=O)CC1` [4-((4-(4-(2-Methoxyphenyl)piperazinyl-1)butyl)amino) -3(2H)-pyridazinone], 4.64 nM; to `COc1ccccc1N1CCN(CCNc2c(Cl)cn[nH]c2=O)CC1` [5-Chloro-4-((2-(4-methoxyphenyl)piperazinyl-1)ethyl)amino)-3(2H)-pyridazinone], 2.95 nM.

Turning to `CCn1nc(Cl)cc(NCCCN2CCN(c3ccccc3OC)CC2)c1=O` [6-Chloro-2-ethyl-4-((3-(4-(2-methoxyphenyl)-1-piperazinyl)propyl)amino)-3(2H)-pyridazinone], the inhibition constant (Ki) on alpha1 adrenoceptors is 18 nM.

As for `COc1ccccc1N1CCN(CCCNc2cc(Cl)nn(CCO)c2=O)CC1` [6-Chloro-2-hydroxyethyl-4-((3-(4-(2-methoxyphenyl)piperazinyl-1)propyl)amino)-3(2H)-pyridazinone], the Ki on alpha1 adrenoceptors was 9.6 nM. As to `CC(C)Oc1ccccc1N1CCN(CCNc2cc(Cl)n[nH]c2=O)CC1` [6-Chloro-4-((2-(4-(2-iso-propoxyphenyl)piperazinyl-1)ethyl)amino)-3(2H)-pyridazinone], at alpha1 adrenoceptors, the Ki was 10 nM.

Turning to `COc1ccccc1N1CCN(CCNc2cc(Cl)n[nH]c2=O)CC1` [6-Chloro-4-((2-(4-(2-methoxyphenyl)piperazinyl-1)ethyl)amino)-3(2H)-pyridazinone], the Ki at alpha1 adrenoceptors was found to be 12.8 nM. As to `COc1cc(C)ccc1N1CCN(CCCNc2cc(Cl)n[nH]c2=O)CC1` [6-Chloro-4-((3-(4-(2-methoxy-4-methylphenyl)piperazinyl-1)propyl)amino)-3(2H)-pyridazinone], on alpha1 adrenoceptors, the Ki came out at 7.49 nM.

Consider `COc1ccccc1N1CCN(CCCNc2cc(Cl)n[nH]c2=O)CC1` [6-Chloro-4-((3-(4-(2-methoxyphenyl)piperazinyl-1)propyl)amino)-3(2H)-pyridazinone], for which, on alpha1 adrenoceptors, the Ki turned out to be 11 nM. As for `COc1ccccc1N1CCN(CCCCNc2cc(Cl)n[nH]c2=O)CC1` [6-Chloro-4-((4-(4-(2-methoxyphenyl)-1-piperazinyl)butyl)amino)-3(2H)-pyridazinone], the Ki on alpha1 adrenoceptors is 3.34 nM.
